# Measured values: PubChem BioAssay (NCI)
#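 Values below derive from 48-hour exposures of cells grown in 96-well plates, with endpoints linearly interpolated between the two concentrations bracketing the appropriate inhibition level. GI50 = concentration required for 50% inhibition of growth. The concentration for full growth arrest is given as TGI.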
# Assays:
# Assay in all cases: NCI-60 cell line screen, 48 h
# [1] = test system: A498 renal
# [2] = test system: COLO 205 colon
# [3] = test system: DMS 114 small cell lung
# [4] = test system: DMS 273 small cell lung
# [5] = test system: HCC-2998 colon
# [6] = test system: HOP-18 NSCLC
# [7] = test system: SK-MEL-28 melanoma
# [8] = test system: SK-MEL-5 melanoma
# [9] = test system: SN12C renal
# [10] = test system: XF 498 CNS
# [11] = test system: ACHN renal
# [12] = test system: MDA-MB-435
SMILES,TGI [1] [µM],TGI [2] [µM],TGI [3] [µM],TGI [4] [µM],TGI [5] [µM],TGI [6] [µM],TGI [7] [µM],TGI [8] [µM],TGI [9] [µM],TGI [10] [µM],TGI [11] [µM],GI50 [11] [µM],GI50 [2] [µM],GI50 [5] [µM],GI50 [7] [µM],TGI [12] [µM],GI50 [1] [µM],GI50 [12] [µM],GI50 [8] [µM],GI50 [9] [µM]
COc1cc2c(cc1OC)C(C(c1ccccc1)c1ccccc1)N(C)CC2 (stereo not drawn),> 100,33.5,> 100,> 100,63.8,> 100,> 100,47.6,> 100,97.8,–,–,–,–,–,–,–,–,–,–
O=C1CCC(c2ccccc2)=NN1c1nsc2ccccc12,–,> 100,> 100,> 100,> 100,> 100,> 100,> 100,> 100,–,> 100,–,–,–,–,–,–,–,–,–
COc1cnc2c(c1)C(=O)c1c-2n(CCCN2CCOCC2)c(=O)c2cc(Cl)ccc12,–,> 100,–,–,> 100,–,> 100,–,–,–,> 100,0.332,0.193,> 100,> 100,–,–,–,–,–
O=c1oc2cc(O)ccc2c(O)c1C(c1ccccc1)c1c(O)c2ccc(O)cc2oc1=O,> 100,> 100,–,–,> 100,–,> 100,> 100,> 100,–,–,–,–,–,–,> 100,–,–,–,–
C[n+]1c(/C=C/c2c(O)ccc3ccccc23)ccc2ccccc21,9.43,10.8,–,–,13.4,–,15.1,10.7,13.6,–,11.4,5.1,4.07,6.63,7.91,12.6,2.34,5.84,4.82,6.08
COc1cccc(N2C(Cl)C(=O)C2c2c[nH]c3ccccc23)c1 (stereo not drawn),–,> 100,> 100,–,–,–,> 100,> 100,> 100,> 100,–,–,–,–,–,–,–,–,–,–
C[N+](C)([O-])CCOc1cc2c(c3ccccc13)-c1ccccc1C2=O,60.5,32.3,24.7,43.9,29.2,> 100,39.1,28.7,62.3,37.9,–,–,–,–,–,–,–,–,–,–
O=C1CC2(CCC(O)(c3ccc4ccccc4c3)C(C(=O)c3ccc4ccccc4c3)C2)C(=O)c2ccccc2N1 (stereo not drawn),> 100,> 100,–,–,> 100,–,> 100,> 100,> 100,–,–,–,–,–,–,> 100,–,–,–,–
